pIC50: −log10 of the molar value.
biological target: Alpha-glucosidase MAL12 (Saccharomyces cerevisiae (strain ATCC 204508 / S288c), UniProt P53341); test: Glucosidase assay; settings: pH 6.8; 37 °C
Protocol: Reaction mixture (100 µL) contained 70 µL 50 mM Na2HPO4 buffer, pH 6.8, 10 µL test compound (0.5 mM), followed by the addition of 10 µL enzyme (0.0234 units). The mixture was pre-incubated for 10 min at 37 °C and pre-read at 400 nm. The reaction was initiated by the addition of 10 µL of 0.5 mM substrate (p-nitrophenyl glucopyranoside) and incubated at 37 °C for 30 min. The absorbance of p-nitrophenol was measured at 400 nm.

Alpha-glucosidase MAL12, sequence (P53341 whole entry): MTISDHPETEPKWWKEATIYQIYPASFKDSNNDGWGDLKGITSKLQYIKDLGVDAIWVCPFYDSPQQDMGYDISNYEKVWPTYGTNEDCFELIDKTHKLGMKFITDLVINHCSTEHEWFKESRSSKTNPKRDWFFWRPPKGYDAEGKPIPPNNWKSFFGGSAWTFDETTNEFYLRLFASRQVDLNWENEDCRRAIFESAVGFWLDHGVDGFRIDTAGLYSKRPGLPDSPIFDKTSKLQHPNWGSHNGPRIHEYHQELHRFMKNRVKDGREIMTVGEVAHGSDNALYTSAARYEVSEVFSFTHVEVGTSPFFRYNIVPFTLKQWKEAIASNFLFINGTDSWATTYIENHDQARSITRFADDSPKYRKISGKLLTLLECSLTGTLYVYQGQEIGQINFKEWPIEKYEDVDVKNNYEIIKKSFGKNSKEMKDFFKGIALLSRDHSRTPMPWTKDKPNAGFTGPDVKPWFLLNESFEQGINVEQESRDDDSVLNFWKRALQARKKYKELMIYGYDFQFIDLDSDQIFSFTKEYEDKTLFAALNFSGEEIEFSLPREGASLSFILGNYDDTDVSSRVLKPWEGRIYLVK

SMILES | pIC50
CCOC(=O)[C@H]1[C@@H]2NC(=O)NC1(C)Oc1ccccc12 [(+-)2,6-Methano-4-oxo-3,4,5,6-tetrahydro-2H-[1,3,5]benzoxadiazocines (4d)] | 3.91
CCOC(=O)C1C(C)=NC(=O)NC1c1ccc(Cl)cc1 (stereo unspecified) [Ethyl 4-(4-chlorophenyl)-6-methyl-2-oxo-1,2,3,4-tetrahydropyrimidine-5-carboxylate (4b)] | 3.67
CCOC(=O)C1C(C)=NC(=O)NC1c1ccc(O)c(OC)c1 (stereo unspecified) [Ethyl 4-(4-hydroxy-3-methoxyphenyl)-6-methyl-2-oxo-1,2,3,4-tetrahydropyrimidine-5-carboxylate (4e)] | 3.52
CCOC(=O)C1C(C)=NC(=S)NC1c1ccc(C)cc1 (stereo unspecified) [Ethyl 6-methyl-4-(4-methylphenyl)-2-thioxo-1,2,3,4-tetrahydropyrimidine-5-carboxylate (4l)] | 3.90

The remaining lines, values ahead:

pIC50 | SMILES
3.84 | CCOC(=O)C1C(C)=NC(=O)NC1c1ccccc1 (stereo unspecified) [Ethyl 6-methyl-2-oxo-4-phenyl-1,2,3,4-tetrahydropyrimidine-5-carboxylate (4a)]
3.95 | CCOC(=O)C1C(C)=NC(=O)NC1c1ccc(C)cc1 (stereo unspecified) [Ethyl 6-methyl-4-(4-methylphenyl)-2-oxo-1,2,3,4-tetrahydropyrimidine-5-carboxylate (4f)]
